This note sets out measurements from US20260001889A1, “COMPOSITIONS USEFUL FOR MODULATING SPLICING” (Skyhawk Therapeutics, Inc., priority 2022, published 2026).

One assay has as its system total ATXN3 protein. The assay can be described thus: ATXN3 Total Protein Assay (Mesoscale Discovery, SK-N-MC cells). It counts as cell-based, Human. To be noted: incubation for 48 hours, MSD assay. A digest of the protocol:
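Readout: MSD electrochemiluminescence immunoassay of lysates, calibrated with recombinant ATXN3 and using mouse/rabbit anti-ATXN3 antibody pair. Cells (SK-N-MC, human) were exposed for 48 h to compound doses between 30 μM and 0.6 nM.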

In the next assay the test system is ATXN3-HiBiT protein. The assay can be described thus: ATXN3 Total Protein Assay (Kelly-ATXN3-HiBiT luminescence). It counts as cell-based. To be noted: Kelly-ATXN3-HiBiT cells, 48 h after addition of compound. A digest of the protocol:
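Endogenous ATXN3-HiBiT protein in knock-in Kelly neuroblastoma cells measured by lytic HiBiT luminescence 48 h post-compound (added 24 h after seeding 2000 cells/well). Values are fold changes relative to DMSO, with viability from a parallel CellTiter-Glo plate.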

Assay [1] deals with ATXN3 transcripts containing exon 4. Description: ATXN3 Quantitative Splicing Assay (qPCR, E4E5 primers/probe). In kind it is cell-based. To be noted: Homo sapiens, SK-N-MC cells, compounds for 24 h. A digest of the protocol:
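Exon 4-containing ATXN3 transcripts are quantified by TaqMan qPCR (E4E5 primers/probe) on cell-lysate cDNA, with total ATXN3 from the E8E9 set. Source cells: human neuroblastoma SK-N-MC, exposed for 24 h to compound at 30 μM down to 0.6 nM.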

The structures appear in SMILES notation.

With `C[C@H](N)Cc1oc2c(NCc3cccs3)cc(Cl)nc2c1-c1cnco1` [Compound 310], the half-inhibitory concentration (IC50) (in the assay on total ATXN3 protein; in assay [1]) was 101 to 500 nM in each case. Also, the EC50 in the assay on ATXN3-HiBiT protein was in the range of 101 to 500 nM.
For the compound `N[C@H](Cc1oc2c(NCc3cccs3)cc(Cl)nc2c1Br)C(F)F` [Compound 242, 2-[(R)-2-amino-3,3-difluoropropyl]-3-bromo-5-chloro-7-thenylamino-1-oxa-4-azaindene], the IC50 (in the assay on total ATXN3 protein; in assay [1]) was 101 to 500 nM each time. For the same compound, in the assay with ATXN3-HiBiT protein, the EC50 was in the range of 101 to 500 nM.
For the compound `N[C@@H](COC(F)F)Cc1oc2c(NCc3cccs3)cc(Cl)nc2c1Br` [Compound 117, 2-[(R)-2-amino-3-difluoromethoxypropyl]-3-bromo-5-chloro-7-thenylamino-1-oxa-4-azaindene], the half-maximal inhibitory concentration (IC50) (in the assay on total ATXN3 protein; in assay [1]) was 0.01 to 100 nM in each case. Also, the half-maximal effective concentration (EC50) in the assay with ATXN3-HiBiT protein lay within 0.01 to 100 nM.
On to `C[C@H](N)Cc1oc2c(NCc3ccccc3F)cc(Cl)nc2c1Br` [Compound 340, 2-[(S)-2-aminopropyl]-3-bromo-5-chloro-7-{[(o-fluorophenyl)methyl]amino}-1-oxa-4-azaindene], for which the half-maximal inhibitory concentration (IC50) (in the assay with total ATXN3 protein; in assay [1]) was 501 to 5000 nM throughout. The concentration giving a half-maximal response (EC50) in the assay on ATXN3-HiBiT protein fell in the range of 501 to 5000 nM.
Consider `C#Cc1c(C[C@@H](N)COC)oc2c(NCc3ccco3)cc(Cl)nc12` [Compound 66, 2-[(R)-2-amino-3-methoxypropyl]-5-chloro-3-ethynyl-7-(furfurylamino)-1-oxa-4-azaindene], for which the IC50 (in the assay with total ATXN3 protein; in assay [1]) was 0.01 to 100 nM throughout. The same compound showed an EC50 in the assay on ATXN3-HiBiT protein of 0.01 to 100 nM.
`COC[C@H](N)Cc1oc2c(NCc3ccco3)cc(Cl)nc2c1Cl` [Compound 52, 2-[(R)-2-amino-3-methoxypropyl]-3,5-dichloro-7-(furfurylamino)-1-oxa-4-azaindene]: the half-inhibitory concentration (IC50) with total ATXN3 protein lay in the range of 101 to 500 nM; in assay [1] it was 0.01 to 100 nM. In the assay with ATXN3-HiBiT protein, this compound returned a concentration giving a half-maximal response (EC50) of 0.01 to 100 nM.
For `C#Cc1c(C[C@@H](N)CC(F)(F)F)oc2c(NCc3cccs3)cc(Cl)nc12` [Compound 121, 2-[(R)-2-amino-4,4,4-trifluorobutyl]-5-chloro-3-ethynyl-7-thenylamino-1-oxa-4-azaindene], the IC50 (in the assay on total ATXN3 protein; in assay [1]) was 101 to 500 nM each time. The same compound returned a concentration for a half-maximal effect (EC50) in the assay on ATXN3-HiBiT protein of 101 to 500 nM.
With `C[C@H](N)Cc1oc2c(NCc3cccs3)cc(Cl)nc2c1-c1nccn1C` [Compound 314, 2-[(S)-2-aminopropyl]-5-chloro-3-(1-methyl-2-imidazolyl)-7-thenylamino-1-oxa-4-azaindene], the IC50 (in the assay on total ATXN3 protein; in assay [1]) was 10000 to 40000 nM throughout. This compound had a half-maximal effective concentration (EC50) in the assay on ATXN3-HiBiT protein of 10000 to 40000 nM.
As for `C[C@H](F)[C@H](N)Cc1oc2c(NCc3c(F)cccc3F)cc(Cl)nc2c1Br` [Compound 153, 2-[(2R,3S)-2-amino-3-fluorobutyl]-3-bromo-5-chloro-7-{[(2,6-difluorophenyl)methyl]amino}-1-oxa-4-azaindene], the 50% inhibitory concentration (IC50) in the assay on total ATXN3 protein fell in the range of 5000 to 10000 nM; in assay [1] it was 10000 to 40000 nM. For the same compound, the 50% effective concentration (EC50) in the assay with ATXN3-HiBiT protein lay within 10000 to 40000 nM.
Regarding `C=C(C)c1c(C[C@H](C)N)oc2c(NCc3cccs3)cc(Cl)nc12` [Compound 252, 2-[(S)-2-aminopropyl]-5-chloro-3-isopropenyl-7-thenylamino-1-oxa-4-azaindene], the figures for the concentration for half-maximal inhibition (IC50) (in the assay with total ATXN3 protein; in assay [1]) were 5000 to 10000 nM and 10000 to 40000 nM, respectively. The compound also registered a 50% effective concentration (EC50) in the assay with ATXN3-HiBiT protein of 501 to 5000 nM.
Turning to `N[C@H](Cc1oc2c(NCc3cccs3)cc(Cl)nc2c1Br)[C@H]1CCOC1` (single isomer, unassigned) [Compound 99], the half-maximal inhibitory concentration (IC50) (in the assay with total ATXN3 protein; in assay [1]) was 101 to 500 nM throughout. This compound also had an EC50 in the assay on ATXN3-HiBiT protein of 501 to 5000 nM.
For the compound `N[C@@H](COC1CC1)Cc1oc2c(NCc3cccs3)cc(Cl)nc2c1Br` [Compound 115, 2-[(R)-2-amino-3-cyclopropoxypropyl]-3-bromo-5-chloro-7-thenylamino-1-oxa-4-azaindene], the IC50 (with total ATXN3 protein; in assay [1]) was 101 to 500 nM in each case. This compound also gave a half-maximal effective concentration (EC50) with ATXN3-HiBiT protein of 101 to 500 nM.
